These are literature values, as cited in patent publication US12290525B2, “5 alpha dihydrotestosterone formulations and associated methods of use and treatment” (priority 2022, dated 2025).

Data set [1] deals with estrogen receptor (ER) subtype ERβ (Homo sapiens, UniProt Q92731).
estrogen receptor (ER) subtype ERβ, sequence (Q92731 whole entry): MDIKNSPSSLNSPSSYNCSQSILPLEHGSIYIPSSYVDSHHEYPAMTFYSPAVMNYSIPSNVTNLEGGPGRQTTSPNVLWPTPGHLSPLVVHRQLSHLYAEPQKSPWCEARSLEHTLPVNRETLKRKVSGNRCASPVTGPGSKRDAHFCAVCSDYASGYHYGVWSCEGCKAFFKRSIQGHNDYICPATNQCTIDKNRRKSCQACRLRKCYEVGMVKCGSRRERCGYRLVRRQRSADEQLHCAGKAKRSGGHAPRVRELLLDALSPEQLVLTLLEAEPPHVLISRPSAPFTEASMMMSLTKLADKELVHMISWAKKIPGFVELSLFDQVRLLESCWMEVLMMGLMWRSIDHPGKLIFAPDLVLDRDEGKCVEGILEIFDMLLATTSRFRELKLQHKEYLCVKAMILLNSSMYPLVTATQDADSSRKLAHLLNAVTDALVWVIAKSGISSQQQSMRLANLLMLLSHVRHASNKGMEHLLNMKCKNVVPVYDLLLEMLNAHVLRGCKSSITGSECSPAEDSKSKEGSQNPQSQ

Consider `C[C@]12CC[C@@H](O)C[C@@H]1CC[C@@H]1[C@@H]2CC[C@]2(C)[C@@H](O)CC[C@@H]12` [3α-Androstanediol, 3α-androstanediol], for which the “activity at the GABAA receptor” value in the data set on GABAA receptor was “potent positive allosteric modulator”.

With `C[C@]12CC[C@H](O)C[C@@H]1CC[C@@H]1[C@@H]2CC[C@]2(C)[C@@H](O)CC[C@@H]12` [3β-androstanediol], in data set [1], the “activity at ERβ” value is “potent and selective agonist”.
